Results reported in patent US20090176772A1, “METHOD OF REVERSING LEFT VENTRICULAR REMODELING” (priority 2004, published 2009).

System: dogs with chronic heart failure produced by multiple sequential intracoronary microembolizations
Test: Echocardiographic and Doppler measurements in dogs with chronic heart failure
Format: in vivo, dog
Settings: mean±SEM
From the text: The following example examines the effects of ranolazine alone and in combination with an angiotensin converting enzyme (ACE) inhibitor and in combination with a beta-blocker on the progression of left ventricular (LV) dysfunction and LV chamber remodeling in dogs with chronic heart failure produced by multiple sequential intracoronary microembolizations.
Chronic LV dysfunction and failure in dogs was produced by multiple sequential intracoronary embolizations with polystyrene Latex microspheres (77-109 μm in diameter) as previously described by Sabbah et al. (1991) Am. J. Physiol. 260:H1379-H1384. Coronary microembolizations were performed during cardiac catheterization under general anesthesia and sterile conditions. Anesthesia was induced using a combination of intravenous injections of hydromorphone (0.22 mg/kg), diazepam (0.2-0.6 mg/kg) and sodium pentobarbital 50-100 mg to effect. Plane of anesthesia was maintained throughout the study using 1% to 2% isoflurane. Left and right heart catheterization was performed via a femoral arteriotomy and venotomy. After each catheterization, the vessels were repaired using 6-0 silk and the skin closed with 4-0 suture. Microembolizations were discontinued when LV ejection fraction, determined angiographically, was between 30% and 40%. A period of 2 weeks was allowed after the last embolization to ensure that infarctions produced by the last microembolizations have completely healed and heart failure was established. The study protocol was then performed.
Healthy, conditioned, purpose-bred mongrel dogs weighing between 19 and 25 kg.
A randomized, blinded, placebo controlled study design was used. A total of 28 dogs underwent multiple sequential intracoronary microembolizations as described above to produce chronic heart failure. Two weeks after the last embolization, dogs were randomized into 4 study groups (treatment arms). Dogs were randomized to 3 months oral therapy with ranolazine alone (375 mg, bid, n=7), ranolazine (375 mg bid) in combination with metoprolol tartrate (25 mg bid, n=7), ranolazine (375 mg bid) in combination with enalapril (10 mg bid, n=7), or placebo (ranolazine vehicle bid, n=7). Hemodynamic, angiographic, echocardiographic, Doppler and neurohumoral measurements were made prior to randomization (2 weeks after the last embolization) and after completion of therapy (3 months after initiating therapy). After completing the final hemodynamic and angiographic study, dogs were euthanized and the hearts removed and tissue prepared and saved for future histological and biochemical evaluations. The study primary and secondary end-points were as follows:
Echocardiographic and Doppler studies were performed in all dogs at all specified study time points using a 77030A ultrasound system (Hewlett-Packard) with a 3.5 MHZ transducer. All echocardiographic measurements were made with the dog placed in the right lateral decubitus position and recorded on a Panasonic 6300 VHS recorder for subsequent off-line analysis. Transverse 2-dimensional echocardiograms were obtained at the level of the LV papillary muscle and were used to calculate LV fractional area of shortening. The latter was calculated as the end-diastolic LV cavity area minus the end-systolic cavity area divided by the end-diastolic cavity area times 100. Two chamber view 2-dimensional echocardiograms were also obtained to ascertain LV major and minor semiaxes to be used for calculation of LV end-diastolic circumferential wall stress. Wall stress was calculated as follows: Stress=Pb/h(1−h/2b)(1−hb/2a2), where P is LV end-diastolic pressure, a is LV major semiaxis, b is LV minor semiaxis, and h is LV wall thickness.
Mitral inflow velocity was measured by pulsed-wave Doppler echocardiography. The velocity waveforms were used to calculate peak mitral flow velocity in early diastole (PE), peak mitral inflow velocity during LA contraction (PA), the ratio of PE to PA and early mitral inflow deceleration time. […]

[1] = POST: after 3 months of oral therapy bid
[2] = PRE: at time of randomization, before therapy
[3] = change from pre-treatment to post-treatment (3 months)

COc1ccccc1OCC(O)CN1CCN(CC(=O)Nc2c(C)cccc2C)CC1 (racemic) [RAN Alone, (±)-N-(2,6-dimethylphenyl)-4-[2-hydroxy-3-(2-methoxyphenoxy)-propyl]-1-piperazineacetamide]
DT = deceleration time [1]: 87 ± 4 ms | EDWS = LV end-diastolic circumferential wall stress [1]: 42 ± 4 gm-cm^2 | FAS = LV fractional area of shortening [1]: 29 ± 2% | MR = severity of mitral regurgitation [1]: 10.1 ± 1.3% | PE/PA (mitral inflow velocity ratio) [1]: 2.8 ± 0.3 | DT = deceleration time [2]: 88 ± 3 ms | EDWS = LV end-diastolic circumferential wall stress [2]: 56 ± 5 gm-cm^2 | FAS = LV fractional area of shortening [2]: 28 ± 1% | MR = severity of mitral regurgitation [2]: 11.3 ± 1.9% | PE/PA (mitral inflow velocity ratio) [2]: 2.7 ± 0.3 | Δ DT (deceleration time) [3]: -1 ± 4 ms | Δ EDWS (LV end-diastolic circumferential wall stress) [3]: −14.5 ± 5.2 gm-cm^2 | Δ FAS (LV fractional area of shortening) [3]: 1 ± 1 % | Δ MR (severity of mitral regurgitation) [3]: −1.2 ± 1.1% | Δ PE/PA [3]: 0.0 ± 0.4
